According to US20220257571A1, “INHIBITOR OF MAP KINASE INTERACTING SERINE/THREONINE KINASE 1 (MNK1) AND MAP KINASE INTERACTING SERINE/THREONINE KINASE 2 (MNK2), CANCER THERAPY AND THERAPEUTIC COMBINATIONS” (FUNPACIÓ HOSPITAL UNIVERSITARI VALL D'HEBRON - INSTITUT DE …, priority 2019, published 2022):

Experiments:
MNK1/2 [1] = test: radiometric kinase assay (33PanQinase Activity Assay), IC50; type: biochemical
Procedure: (§1) The kinase activity of the compound was measured by a radiometric kinase assay (^33PanQinase® Activity Assay) carried out by Proqinase (www.proqinase.com).
(§2) The assays were carried out in 96-well FlashPlates™ by PerkinElmer (Boston, Mass., USA) with a reaction volume of 50 μl. The reaction cocktail was pipetted in 4 steps: (1) 20 μl buffer, (2) 5 μl ATP solution (in H2O), (3) 5 μl compound (in 10% DMSO) and (4) 20 μl enzyme/substrate mixture. Lastly, the cocktail contained 70 mM HEPES-NaOH pH 7.5, 3 mM MgCl2, 3 mM MnCl2, 3 μM sodium orthovanadate, 1.2 mM DTT, 50 μg/ml PEG20000, ATP (1 μM for MNK1 and 0.3 μM for MNK2), [γ-^33P]-ATP (approx. […] per well), protein kinase (variable amounts depending on the batch) and substrate (2 μg/50 μl).
(§3) Reaction cocktails were incubated at 30° C. for 60 minutes. The reaction was stopped with 50 μl of 2% H3PO4 (v/v), the plates were sucked, they were washed twice with 200 μl of 0.9% NaCl (w/v) and the incorporation of ^33Pi (MicroBeta microplate scintillation counter, Wallac) was determined. All assays were performed with a Beckman Coulter/SAGIAN™ system.
(§4) The residual activity (in %) for each well of a particular plate was calculated using the following formula (wherein high control is the kinase activity in absence of an inhibitor and low control is the radioactivity value of the substrate in absence of a kinase).

MNK1/2 [2] = target: T1, MNK1/2; test: as above; type: biochemical; conditions: MNK1/2, isoform not stated; read-out: enzymatic IC50
T1 construct: rows headed: enzymatic IC50
Procedure: as §1, §2, §3, §4

[3] = system: eIF4E phosphorylation in MCF10 cells; test: inhibition of eIF4E phosphorylation by Western Blot in MCF10 cells; type: cell-based; conditions: Homo sapiens; immortalised non-tumour breast cells (MCF10)
Procedure: (§5) MCF10A cells (also commercially available) were grown in DMEM/F-12 medium (Dulbecco's Modified Eagle Medium: 3.125 g/L D-Glucosa, 365 mg/L L-Glutamine, Nutrient Mixture F-12 (Gibco)) supplemented with 10% FBS, 100 U/ml penicillin, 100 μg/ml streptomycin, 1% L-Glutamine (Cambrex), 10 ng/ml choleric toxin (Sigma-Aldrich), 0.005 mg/ml insulin (Sigma), 100 ng/ml hydrocortisone (Sigma) and 20 ng/ml EGF (Epidermal growth factor, Sigma).
Inhibition of eIF4E phosphorylation was quantified by Western Blot. Cells were seeded in 60 mm plates (700,000 cells for 24 h, 500,000 cells for 48 h and 300,000 cells for 72 h).
After 24 h, the treatments were added. The stocks of compounds were prepared in […] at a concentration 200 times more concentrated than the treatment concentration. Thus, in all cases, the final concentration of DMSO in the medium was 0.5%.
After incubation, proteins were removed and Western Blot was performed. […] The samples were centrifuged at 15,000 g and the supernatant was quantified by the Bradford method. […] Selectivity against MNK was analysed with ERK, p-ERK, MNK1, p-MNK1, 4EBP1 and p-4EBP1 antibodies.

MCF7 cells = test: cell growth of MCF7 cells with tamoxifen (crystal violet); type: cell-based; conditions: combination with tamoxifen
Procedure: Commercially available MDA-MB-231, MDA-MB-468, MCF7 and A375M, IMR90 (IMR-90 (ATCC® CCL-186TH) cells were grown at 37° C. and 5% CO2 in DMEM medium (Dulbecco's Modified Eagle Medium, 4.5 g/I glucose; 30 mg/I L-Glutamine (Gibco)) supplemented with 10% foetal bovine serum, 100 U/ml penicillin and 100 μg/ml streptomycin.
Cell growth in the presence of EB1, tamoxifen or the combination of both inhibitors was measured by crystal violet. Data were normalized to the vehicle control.

MCF10 cells = test: in vitro proliferation assay (crystal violet), MCF10; type: cell-based; conditions: non-tumour cells MCF10, concentrations necessary to inhibit MNK activity
Procedure: as §5
In 96-well plates, 5000 cells were seeded for each condition. After 24 h, the cells were treated with the compound at the corresponding concentration. The stocks of compounds were prepared in 100% DMSO at a concentration 200 times more concentrated than the treatment concentration. Thus, in all cases, the final concentration of DMSO in the medium is 0.5%. After incubation, the medium was removed and the cells were fixed with 4% PFA (100 μl per well) for 30 minutes. Two washes with PBS were performed.
Cells were stained with crystal violet (0.5% in EtOH): 100 μl were added to each well, stirred for 15 minutes, washed with water and left to dry. The content of each well was dissolved in 200 μl of 15% AcOH and the absorbance thereof was measured at 595 nm.

22Rv1 cells = test: apoptosis assay of 22Rv1 cells (Propidium Iodide staining); type: cell-based; conditions: 22Rv1, 72 h, dual treatment EB1 and Enzalutamide
Procedure: Dual inhibition of AR and eIF4E phosphorylation induces cell death via apoptosis. […] With this aim, 22Rv1 (A) cells were treated either with vehicle (DMSO), enzalutamide, EB1 or a combination of both with the indicated concentrations for 72 h. Whole cell lysates were then prepared and subjected to western blot analysis with the indicated antibodies. […] Increase in CI-PARP levels indicated apoptotic induction under the combinatory treatment. (B) Apoptosis assays of 22Rv1 cell line after treatment with the indicated concentrations of Enzalutamide, EB1 and the combination of both for 72 h, quantified by analysis of fragmented/condensed chromatin after Propidium Iodide staining. […] Representative Propidium Iodide and Hoechst staining images of 22Rv1 cell line were obtained, although data are not shown. Data are mean of two technical replicates from one experiment ±SEM ***p<0.001 two-tailed Student's test

MDA-MB-231 cells = test: FACS analysis of cell cycle and subG1, MDA-MB-231; type: cell-based; conditions: MDA-MB-231, higher concentrations
Procedure: To determine how cell growth is affected at higher concentrations of EB1, a FACS analysis was performed to monitor the state of the cell cycle and the percentage of cells in subG1 as an indicator of cell death. […] Equivalent results have been described for the MNK1/2 inhibitor BAY 11433296 (FIG. 4).

For `Nc1n[nH]c2nc(-c3ccccc3)cc(-c3ccccc3)c12` [EB1, 4,6-diphenyl-1H-pyrazolo[3,4-b]pyridin-3-amine], the “mode of MNK1/2 inhibition” value (MNK1/2 [1]) was “non-ATP competitive”, the IC50 (MNK1/2 [2]) was 700 nM and the EC50 [3] was 700 nM. For the same compound, the “sensitivity of MCF7 cells to tamoxifen” value (MCF7 cells) was “increased sensitivity to tamoxifen”, the “effect on cell growth” value (MCF10 cells) was “does not affect the cell growth” and the apoptotic cell population (22Rv1 cells) was “Remarcable increase in apoptotic cell population”. For the same compound, the “cells in the G1 phase of the cell cycle” value (MDA-MB-231 cells) was “increase of cells could be observed in the G1 phase”.
